Test [1] concerns Eotaxin-3 (CCL26) release in human whole blood stimulated with IL-4. In words: Human Whole Blood Eotaxin-3 Assay (IL-4 stimulated, inhibition of eotaxin-3 release). The test is classed as cell-based. To be noted: EC50 provided for test compounds with >80% Emax, geometric mean across assay runs and batches. As for the experimental part:
This was a human whole blood assay using recombinant human Interleukin 4 to stimulate the blood and measuring the ability of the test compounds to inhibit eotaxin-3 release. The biological activities of the test compounds have been tested in human whole blood stimulated with IL-4 measuring Eotaxin-3 release. The test compounds were added to 384 well clear flat-bottom plate in a 4-fold serial dilution in triplicates using a liquid handler. Human whole blood stabilized in lithium-heparin tubes was added in a volume of 65 uL per well, resulting in a final DMSO concentration of 0.5%. The plate is incubated for 2 h at 37° C. under 5% CO2/95% air. Subsequently, 5 μL of recombinant human IL-4 (R&D Systems, cat #204-ILB) was added to the wells to a final concentration of 400 pM. The plate was incubated for 48 h at 37° C. under 5% CO2/95% air. The plate was spun down for 10 minutes at 500×g and 20 uL supernatant was harvested and transferred to a 384 well v-bottom plate using a liquid handler and stored at −20° C. until further analysis. 10 uL supernatant was used to measure the level of Eotaxin-3 (CCL26) using Human Eotaxin-3 MSD kit from Mesocsale (Cat #K251UEK-4). The assay was performed according to the manufacture instructions.
The data from the human whole blood eotaxin-3 assay is shown below for Examples 2q11, 2110, and 2c49 (where the effect in % is plotted against the test concentration in M on a log-scale).

Test [2] concerns the target T1, STAT6 (endogenous, HiBiT-tagged) in HeLa LgBiT clone 4.14 cells (Homo sapiens, UniProt P42226).
T1 construct: These cells express endogenous STAT6; host or cells: HeLa LgBiT clone 4.14
T1 sequence (P42226 1-847): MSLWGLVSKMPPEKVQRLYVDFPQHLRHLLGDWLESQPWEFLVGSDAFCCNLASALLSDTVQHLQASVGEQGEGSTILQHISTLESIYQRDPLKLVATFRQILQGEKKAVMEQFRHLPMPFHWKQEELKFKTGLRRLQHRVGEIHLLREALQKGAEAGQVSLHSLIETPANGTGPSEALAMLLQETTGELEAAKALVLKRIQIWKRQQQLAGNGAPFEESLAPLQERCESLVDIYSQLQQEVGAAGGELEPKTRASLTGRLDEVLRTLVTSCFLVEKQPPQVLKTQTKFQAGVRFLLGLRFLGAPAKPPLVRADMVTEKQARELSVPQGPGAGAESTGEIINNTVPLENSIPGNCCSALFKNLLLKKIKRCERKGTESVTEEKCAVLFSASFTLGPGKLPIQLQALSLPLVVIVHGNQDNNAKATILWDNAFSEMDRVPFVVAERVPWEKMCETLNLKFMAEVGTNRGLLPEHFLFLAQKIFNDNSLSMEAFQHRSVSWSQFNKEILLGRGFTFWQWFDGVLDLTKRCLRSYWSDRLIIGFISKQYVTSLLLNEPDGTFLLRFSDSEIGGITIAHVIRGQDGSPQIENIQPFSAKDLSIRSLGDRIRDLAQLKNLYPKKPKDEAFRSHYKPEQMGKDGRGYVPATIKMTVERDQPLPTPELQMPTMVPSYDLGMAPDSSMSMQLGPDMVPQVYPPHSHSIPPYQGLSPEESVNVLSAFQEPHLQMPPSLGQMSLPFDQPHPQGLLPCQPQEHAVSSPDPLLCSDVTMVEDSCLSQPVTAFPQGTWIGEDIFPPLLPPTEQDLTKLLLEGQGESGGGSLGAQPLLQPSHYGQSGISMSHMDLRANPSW
In words: STAT6 Degrader Assay (HiBiT based, HeLa LgBiT clone 4.14 cells, luminescence, DC50). The test is classed as cell-based. To be noted: DC50 provided for test compounds with >80% Emax, geometric mean, read-out: STAT6 degradation DC50. In short, it runs like this:
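Remaining STAT6 is read as NanoBiT luminescence after 0.5 h with Nano-Glo, in HeLa LgBiT clone 4.14 cells expressing endogenous HiBiT-tagged STAT6, following 4-24 h compound incubation at 37 °C. Full degradation is set by 50 µM terfenadine, which kills the cells; degradation plotted against log compound concentration.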

Consider ten molecules from patent US20260014147A1, “STAT6 DEGRADERS” (Gilead Sciences, Inc., priority 2024, published 2026).

Take `C[C@@H](c1cc2c(-c3ccc(N)nc3)ccnc2n1C)N1CCC(c2ccc(C(=O)N3CCC(CN4CCN(c5ccc(NC6CCC(=O)NC6=O)cc5F)CC4C(F)(F)F)CC3)cc2)CC1` (mixture of isomers) [Example 2f9, 3-((4-(4-((1-(4-(1-((S)-1-(4-(6-aminopyridin-3-yl)-1-methyl-1H-pyrrolo[2,3-b]pyridin-2-yl)-ethyl)piperidin-4-yl)benzoyl)piperidin-4-yl)methyl)-3-(trifluoromethyl)-piperazin-1-yl)-3-fluorophenyl)-amino)piperidine-2,6-dione]: the midpoint of the response in test [1] (Homo sapiens), the EC50, lay at 249 nM. For the same molecule, the DC50 in test [2] is 69.2 nM. With `C[C@@H](c1cc2c(-c3ccc(N)nc3)ccnc2n1C)N1CCC(c2ccc(C(=O)N3CCC(CN4CCN(c5ccc(N[C@H]6CCC(=O)NC6=O)cc5F)CC4)CC3)cc2)CC1` (single isomer, unassigned) [Example 2c19], the 50% effective concentration (EC50) in test [1] (Homo sapiens) is 109 nM. Also, the DC50 in test [2] came to 10.5 nM. Turning to `C[C@@H](c1cc2c(-c3ccc(N)nc3)ccnc2n1C)N1CCC(c2ccc(C(=O)N3CCC(CN4CCN(c5ccc(N[C@H]6CCC(=O)NC6=O)cc5F)CC4)CC3)cc2)CC1` (single isomer, unassigned) [Example 2c20], a half-maximal effect in test [1] (EC50) was put at 82.8 nM. Moreover, the DC50 in test [2] turned out to be 9.6 nM.

For the molecule `COCc1nc2cc(-c3ccnc4c3cc([C@H](C)N3CCC(c5ccc(C(=O)N6CCC(CN7CCN(c8ccc(N[C@@H]9CCC(=O)NC9=O)cc8F)CC7)CC6)cc5)CC3)n4C)ccc2[nH]1` (single isomer, unassigned) [Example 2c52], the EC50 in test [1] (Homo sapiens) was 30.7 nM. Also, the DC50 in test [2] is 3.9 nM. In turn, `COCc1nc2cc(-c3ccnc4c3cc([C@H](C)N3CCC(c5ccc(C(=O)N6CCC(CN7CCN(c8ccc(N[C@H]9CCC(=O)NC9=O)cc8F)CC7)CC6)cc5)CC3)n4C)ccc2[nH]1` (single isomer, unassigned) [Example 2c53] yielded an EC50 in test [1] (Homo sapiens) of 30.9 nM. Further, the DC50 in test [2] came to 4.7 nM. Take `COCc1nc2cc(-c3ccnc4c3cc([C@H](C)N3CCC(c5ccc(C(=O)N6CCC(CN7CCN(c8ccc(N[C@H]9CCC(=O)NC9=O)cc8F)C[C@H]7C)CC6)cc5)CC3)n4C)ccc2[nH]1` (single isomer, unassigned) [Example 2f12]: in test [1] (Homo sapiens), the EC50 worked out at 19.7 nM. Further, the DC50 in test [2] is 4.1 nM. Taken in the same sequence, the figures for `COCc1nc2cc(-c3ccnc4c3cc([C@H](C)N3CCC(c5ccc(C(=O)N6CCC(CN7CCN(c8ccc(N[C@@H]9CCC(=O)NC9=O)cc8F)C[C@H]7C)CC6)cc5)CC3)n4C)ccc2[nH]1` (single isomer, unassigned) [Example 2f13] were 15.6 nM and 2.5 nM. On the same counts, the results for `C[C@@H](c1cc2c(-c3ccc(N)nc3)ccnc2n1C)N1CCC(c2ccc(C(=O)N3CCn4nc(CN5CCC(c6ccc(N[C@@H]7CCC(=O)NC7=O)cc6F)CC5)cc4C3)cc2)CC1` (single isomer, unassigned) [Example 2q10] are 3.2 nM and 1 nM. For the molecule `C[C@@H](c1cc2c(-c3ccc(N)nc3)ccnc2n1C)N1CCC(c2ccc(C(=O)N3CCn4nc(CN5CCC(c6ccc(N[C@H]7CCC(=O)NC7=O)cc6F)CC5)cc4C3)cc2)CC1` (single isomer, unassigned) [Example 2q11], the midpoint of the response in test [1] (Homo sapiens), the EC50, lay at 5.9 nM. Also, the DC50 in test [2] was determined as 0.8 nM. Consider `C[C@@H](c1cc2c(-c3ccc(N)nc3)ccnc2n1C)N1CCC(c2ccc(C(=O)N3CCn4nc(CN5CCN(c6ccc(NC7CCC(=O)NC7=O)cc6F)CC5)cc4C3)cc2)CC1` (stereo partly drawn) [Example 2q15, 3-((4-(4-((5-(4-(1-((S)-1-(4-(6-aminopyridin-3-yl)-1-methyl-1H-pyrrolo[2,3-b]pyridin-2-yl)-ethyl)piperidin-4-yl)benzoyl)-4,5,6,7-tetrahydropyrazolo[1,5-a]pyrazin-2-yl)methyl)piperazin-1-yl)-3-fluoro-phenyl)amino)piperidine-2,6-dione], for which a half-maximal response in test [1] (Homo sapiens) (EC50) required 37.8 nM. In other words, the double-digit nanomolar range.
